{"source": "patent US20040002079A1", "origin": "cited, not measured here", "details": "steady state, red cells vs plasma, different individuals"}
{"smiles": "[Li]", "note": "[lithium, Lithium]", "values": [{"measurement": "lithium ratio [Li]cell/[Li]pl", "result": "0.2 to 0.8"}]}
